We go through 13 compounds from ChEMBL document CHEMBL4219241, “Design, synthesis, and structure-activity relationships of novel imidazo[4,5-c]pyridine derivatives as potent non-nucleoside inhibitors of hepatitis C virus NS5B” (Bioorg Med Chem, 2018).

Usually EC50 stands for the concentration giving half of the maximal effect. One may read the MRT inf as the average time that molecules of a dose stay in the body. Broadly, the AUC(0-inf) is total exposure, with the tail of the curve extrapolated. A high value points to high exposure. Broadly, the Cmax is the peak of the concentration-time curve. A word on the Tmax: it is the time at which the peak concentration occurs.

The target in data set [1] is T1, RNA-directed RNA polymerase (Hepacivirus hominis, UniProt O39930). As to the kind of experiment: Inhibition of Hepatitis C virus genotype 1b NS5B RNA-dependent-RNA polymerase assessed as reduction in viral replication after 72 hrs by indirect immunofluorescence assay. The arrangement: species or system Hepatitis C virus subtype 1b.
Data set [2] can be described thus: MRT (0 to infinity) in Sprague-Dawley rat at 35 mg/kg, po administered via gavage by UPLC-MS analysis. Format: ADME, organism-based. The following applies: in vivo.
Data set [3] can be described thus: AUC (0 to infinity) in Sprague-Dawley rat at 35 mg/kg, po administered via gavage by UPLC-MS analysis. The class given is ADME, organism-based. Also noted: dose 35 mg/kg, route oral, time infinity. As to conditions: in vivo; call rule not given here.
Data set [4] can be described thus: Apparent clearance during terminal phase in Sprague-Dawley rat at 35 mg/kg, po administered via gavage by UPLC-MS analysis. Format: ADME, organism-based. The following applies: in vivo, read-out: CLz/F (converted).
Data set [5] in a line: Apparent volume of distribution during terminal phase in Sprague-Dawley rat at 35 mg/kg, po administered via gavage by UPLC-MS analysis. Format: ADME, organism-based. The following applies: in vivo, read-out: Vz/F.
Data set [6] is described as follows: Terminal half life in Sprague-Dawley rat at 35 mg/kg, po administered via gavage by UPLC-MS analysis. Format: ADME, organism-based. As to conditions: in vivo, read-out: beta t1/2 (converted).
Data set [7] in a line: Cmax in Sprague-Dawley rat at 35 mg/kg, po administered via gavage by UPLC-MS analysis. The class given is ADME, organism-based. The arrangement: dose 35 mg/kg, route oral. The following applies: in vivo.
Data set [8] can be described thus: Tmax in Sprague-Dawley rat at 35 mg/kg, po administered via gavage by UPLC-MS analysis. The class given is ADME, organism-based. As to conditions: in vivo.
Data set [9] has as its target T1, RNA-directed RNA polymerase. In words: Inhibition of Hepatitis C virus genotype 1b NS5B RNA-dependent-RNA polymerase. The arrangement: species or system Hepatitis C virus subtype 1b.
In data set [10] the target is RNA-directed RNA polymerase (Hepacivirus hominis) (UniProt O39930). In words: Potency index, ratio of sofosbuvir EC50 to test compound EC50 for inhibition of Hepatitis C virus genotype 1b NS5B RNA-dependent-RNA polymerase assessed as reduction in viral replication. As to conditions: Hepatitis C virus subtype 1b.

Structures are written as SMILES.

T1 sequence (O39930 whole entry): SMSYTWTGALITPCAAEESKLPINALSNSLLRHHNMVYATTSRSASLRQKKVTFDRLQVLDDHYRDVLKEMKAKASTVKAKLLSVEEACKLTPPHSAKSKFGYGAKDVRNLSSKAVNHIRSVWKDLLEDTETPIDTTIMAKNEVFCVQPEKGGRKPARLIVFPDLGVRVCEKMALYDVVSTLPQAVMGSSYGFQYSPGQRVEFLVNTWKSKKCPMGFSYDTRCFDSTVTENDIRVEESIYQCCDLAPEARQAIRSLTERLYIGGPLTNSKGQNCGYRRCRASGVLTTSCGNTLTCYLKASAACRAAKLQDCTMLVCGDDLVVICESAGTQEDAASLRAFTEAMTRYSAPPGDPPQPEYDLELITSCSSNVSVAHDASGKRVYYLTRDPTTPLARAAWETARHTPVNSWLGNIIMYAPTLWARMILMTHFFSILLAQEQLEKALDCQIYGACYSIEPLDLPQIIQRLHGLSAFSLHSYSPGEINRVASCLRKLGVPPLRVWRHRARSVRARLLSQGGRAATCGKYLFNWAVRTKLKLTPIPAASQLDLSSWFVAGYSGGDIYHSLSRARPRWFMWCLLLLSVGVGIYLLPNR
Sequence of RNA-directed RNA polymerase (Hepacivirus hominis) (O39930 1-591): as the sequence (O39930 whole entry) above

For `Fc1ccccc1-c1nc2ccn(Cc3nc4ccccc4n3-c3ccccc3)cc-2n1`, in data set [1], the EC50 result is recorded as “Not Active”.
On to `Fc1ccccc1-c1nc2ccn(Cc3cn(Cc4nc5ccccc5n4-c4ccccc4)nn3)cc-2n1`, for which the EC50 entry in data set [1] was “Not Active”.
`COc1ccc(-n2cc(Cn3ccc4nc(-c5ccccc5F)nc-4c3)nn2)cc1` registered an MRT inf in data set [2] of 2.18 h. This compound showed a total exposure AUC(0-inf) in data set [3] of 72500 ng·h/mL. Also, the CL/F in data set [4] is 8.33 mL/min/kg. In data set [5], the Vd/F is 2.12 L/kg. In addition, the half-life in data set [6] is 2.88 h. Besides, the peak concentration (Cmax) in [7] amounted to 22300 ng/mL. In addition, the Tmax in [8] worked out at 1.33 h.
Take `Fc1ccccc1-c1nc2ccn(Cc3nc4ccccc4n3-c3cccc(C(F)(F)F)c3)cc-2n1`: in data set [1], the EC50 result is listed as “Not Active”.
Regarding `Fc1ccccc1-c1nc2ccn(Cc3ccc(-c4ccc(C(F)(F)F)cc4C(F)(F)F)nn3)cc-2n1` [TEGOBUVIR], a half-maximal response in data set [9] (EC50) required 2.9 nM.
`Fc1ccccc1-c1nc2ccn(Cc3cn(-c4ccccc4)nn3)cc-2n1`: the Ratio EC50 in [10] was 3.
For the compound `Cc1cc(C)n2nc(Cn3ccc4nc(-c5ccccc5F)nc-4c3)nc2n1`, in data set [1], the EC50 entry is “Not Active”.
With `Fc1ccccc1-c1nc2ccn(Cc3cn(-c4cc(C(F)(F)F)cc(C(F)(F)F)c4)nn3)cc-2n1`, in [1], the concentration for a half-maximal effect (EC50) entry is listed as “Not Active”.
Turning to `Cc1ccc(-n2c(Cn3ccc4nc(-c5ccccc5F)nc-4c3)nc3ccccc32)cc1`, the concentration giving a half-maximal response (EC50) entry in data set [1] is given as “Not Active”.
With `Fc1ccccc1-c1nc2ccn(Cc3cn(Cc4nc5ccccc5n4-c4cccc(C(F)(F)F)c4)nn3)cc-2n1`, the concentration for a half-maximal effect (EC50) entry in data set [1] is listed as “Not Active”.
Consider `Fc1ccccc1-c1nc2ccn(Cc3nc4ccccc4n3-c3cccc(Cl)c3)cc-2n1`, for which the concentration for a half-maximal effect (EC50) result in [1] is recorded as “Not Active”.
`Cc1cc(C)n2cc(Cn3ccc4nc(-c5ccccc5F)nc-4c3)nc2n1`: in [1], the concentration for a half-maximal effect (EC50) result was “Not Active”.
Turning to `Fc1ccccc1-c1nc2ccn(Cc3cn4cccnc4n3)cc-2n1`, the EC50 entry in data set [1] is “Not Active”.
